{
  "source": "ChEMBL document CHEMBL5696442",
  "about": "“Discovery of type II inhibitors of TGFβ-activated kinase 1 (TAK1) and mitogen-activated protein kinase kinase kinase kinase 2 (MAP4K2)” (J Med Chem, 2015)",
  "key": {"[1]": {"target": "Calcium/calmodulin-dependent protein kinase type II subunit gamma (Homo sapiens) (UniProt Q13555)", "assay": "Inhibition of CaMK2g Lys2 labeling site in human Huh-7 cell lysate at 1 uM by KiNativ Profiling analysis relative to control", "assay_type": "subcellular"}, "[2]": {"target": "Ribosomal protein S6 kinase alpha-5 (Homo sapiens) (UniProt O75582)", "sequence (O75582 whole entry, looked up, the tested form may be a part)": "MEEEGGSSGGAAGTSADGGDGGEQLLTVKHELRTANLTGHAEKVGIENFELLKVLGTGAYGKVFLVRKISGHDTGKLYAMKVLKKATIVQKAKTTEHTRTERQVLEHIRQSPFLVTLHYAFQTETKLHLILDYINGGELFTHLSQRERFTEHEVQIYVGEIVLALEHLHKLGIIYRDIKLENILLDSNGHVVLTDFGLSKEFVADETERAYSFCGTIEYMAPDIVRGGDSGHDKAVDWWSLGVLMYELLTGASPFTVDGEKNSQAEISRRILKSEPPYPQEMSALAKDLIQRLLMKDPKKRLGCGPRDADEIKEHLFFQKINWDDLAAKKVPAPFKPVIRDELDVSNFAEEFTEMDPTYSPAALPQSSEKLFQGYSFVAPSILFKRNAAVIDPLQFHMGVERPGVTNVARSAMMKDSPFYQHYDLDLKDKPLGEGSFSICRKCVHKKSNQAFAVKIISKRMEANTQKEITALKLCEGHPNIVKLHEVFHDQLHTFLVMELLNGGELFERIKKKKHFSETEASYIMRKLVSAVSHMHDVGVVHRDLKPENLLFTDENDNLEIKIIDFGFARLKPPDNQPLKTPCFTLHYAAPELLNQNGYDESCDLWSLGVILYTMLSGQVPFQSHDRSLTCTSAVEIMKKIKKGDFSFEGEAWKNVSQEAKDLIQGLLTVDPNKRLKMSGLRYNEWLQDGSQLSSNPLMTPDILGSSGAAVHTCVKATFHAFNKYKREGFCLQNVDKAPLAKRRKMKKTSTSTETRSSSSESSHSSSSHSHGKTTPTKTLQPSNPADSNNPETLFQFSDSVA", "assay": "Inhibition of MSK1 domain1 ATP Loop labeling site in human Huh-7 cells at 1 uM by KiNativ Profiling analysis relative to control", "assay_type": "cell-based"}, "[3]": {"target": "Epidermal growth factor receptor (Homo sapiens) (UniProt P00533)", "sequence (P00533 whole entry)": "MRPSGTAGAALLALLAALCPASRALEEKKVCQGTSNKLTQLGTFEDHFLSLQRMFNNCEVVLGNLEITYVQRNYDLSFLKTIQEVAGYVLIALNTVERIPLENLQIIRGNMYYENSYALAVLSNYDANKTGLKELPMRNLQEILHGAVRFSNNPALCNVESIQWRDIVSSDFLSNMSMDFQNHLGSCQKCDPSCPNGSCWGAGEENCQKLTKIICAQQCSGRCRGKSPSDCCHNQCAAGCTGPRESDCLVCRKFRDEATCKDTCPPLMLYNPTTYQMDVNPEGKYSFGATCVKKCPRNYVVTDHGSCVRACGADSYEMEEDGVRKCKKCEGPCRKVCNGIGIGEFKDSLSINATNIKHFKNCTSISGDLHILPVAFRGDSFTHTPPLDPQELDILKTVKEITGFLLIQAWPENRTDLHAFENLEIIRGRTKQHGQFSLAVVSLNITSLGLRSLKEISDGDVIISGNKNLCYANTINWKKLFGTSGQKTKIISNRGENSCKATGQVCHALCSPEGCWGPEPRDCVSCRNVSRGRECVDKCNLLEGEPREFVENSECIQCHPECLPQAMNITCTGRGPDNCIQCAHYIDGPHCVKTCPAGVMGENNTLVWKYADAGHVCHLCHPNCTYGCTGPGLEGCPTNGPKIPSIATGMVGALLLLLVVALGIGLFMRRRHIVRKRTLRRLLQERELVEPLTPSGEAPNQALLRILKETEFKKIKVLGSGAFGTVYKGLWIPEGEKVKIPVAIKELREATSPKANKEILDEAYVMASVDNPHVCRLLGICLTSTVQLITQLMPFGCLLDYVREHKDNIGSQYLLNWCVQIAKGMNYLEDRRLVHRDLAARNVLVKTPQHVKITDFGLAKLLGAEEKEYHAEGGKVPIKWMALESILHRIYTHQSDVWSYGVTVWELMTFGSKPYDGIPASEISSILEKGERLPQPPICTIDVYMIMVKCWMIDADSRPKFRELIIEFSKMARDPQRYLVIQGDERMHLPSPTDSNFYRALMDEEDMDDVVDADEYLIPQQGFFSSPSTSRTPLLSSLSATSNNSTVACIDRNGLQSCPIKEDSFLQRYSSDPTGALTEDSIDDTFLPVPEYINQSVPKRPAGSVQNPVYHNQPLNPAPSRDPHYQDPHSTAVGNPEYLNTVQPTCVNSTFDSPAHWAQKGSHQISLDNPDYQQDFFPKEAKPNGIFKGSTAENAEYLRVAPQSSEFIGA", "assay": "Inhibition of EGFR Lys1 labeling site harbouring IPVAIKELR in human Huh-7 cell lysate at 1 uM by KiNativ Profiling analysis relative to control", "assay_type": "subcellular"}, "[4]": {"target": "5'-AMP-activated protein kinase catalytic subunit alpha-1 (Homo sapiens) (UniProt Q13131)", "sequence (Q13131 whole entry, looked up)": "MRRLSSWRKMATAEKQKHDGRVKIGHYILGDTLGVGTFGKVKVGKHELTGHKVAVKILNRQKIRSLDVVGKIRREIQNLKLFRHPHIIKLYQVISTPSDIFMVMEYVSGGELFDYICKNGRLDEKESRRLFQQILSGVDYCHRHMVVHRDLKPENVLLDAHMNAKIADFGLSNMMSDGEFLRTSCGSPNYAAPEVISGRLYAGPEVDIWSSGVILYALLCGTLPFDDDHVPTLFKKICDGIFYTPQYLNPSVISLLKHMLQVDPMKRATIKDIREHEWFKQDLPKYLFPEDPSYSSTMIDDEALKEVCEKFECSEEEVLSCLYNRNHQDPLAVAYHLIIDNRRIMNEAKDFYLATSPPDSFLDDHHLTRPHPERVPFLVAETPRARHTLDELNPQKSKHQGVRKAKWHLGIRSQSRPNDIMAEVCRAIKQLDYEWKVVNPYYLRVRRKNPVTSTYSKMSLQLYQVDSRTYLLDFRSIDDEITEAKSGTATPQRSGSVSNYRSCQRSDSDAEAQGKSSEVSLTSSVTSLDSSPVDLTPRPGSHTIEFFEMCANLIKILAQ", "assay": "Inhibition of AMPKa1 Lys2 labeling site in human Huh-7 cell lysate at 1 uM by KiNativ Profiling analysis relative to control", "assay_type": "subcellular"}, "[5]": {"target": "Mast/stem cell growth factor receptor Kit (Homo sapiens) (UniProt P10721)", "sequence (P10721 whole entry)": "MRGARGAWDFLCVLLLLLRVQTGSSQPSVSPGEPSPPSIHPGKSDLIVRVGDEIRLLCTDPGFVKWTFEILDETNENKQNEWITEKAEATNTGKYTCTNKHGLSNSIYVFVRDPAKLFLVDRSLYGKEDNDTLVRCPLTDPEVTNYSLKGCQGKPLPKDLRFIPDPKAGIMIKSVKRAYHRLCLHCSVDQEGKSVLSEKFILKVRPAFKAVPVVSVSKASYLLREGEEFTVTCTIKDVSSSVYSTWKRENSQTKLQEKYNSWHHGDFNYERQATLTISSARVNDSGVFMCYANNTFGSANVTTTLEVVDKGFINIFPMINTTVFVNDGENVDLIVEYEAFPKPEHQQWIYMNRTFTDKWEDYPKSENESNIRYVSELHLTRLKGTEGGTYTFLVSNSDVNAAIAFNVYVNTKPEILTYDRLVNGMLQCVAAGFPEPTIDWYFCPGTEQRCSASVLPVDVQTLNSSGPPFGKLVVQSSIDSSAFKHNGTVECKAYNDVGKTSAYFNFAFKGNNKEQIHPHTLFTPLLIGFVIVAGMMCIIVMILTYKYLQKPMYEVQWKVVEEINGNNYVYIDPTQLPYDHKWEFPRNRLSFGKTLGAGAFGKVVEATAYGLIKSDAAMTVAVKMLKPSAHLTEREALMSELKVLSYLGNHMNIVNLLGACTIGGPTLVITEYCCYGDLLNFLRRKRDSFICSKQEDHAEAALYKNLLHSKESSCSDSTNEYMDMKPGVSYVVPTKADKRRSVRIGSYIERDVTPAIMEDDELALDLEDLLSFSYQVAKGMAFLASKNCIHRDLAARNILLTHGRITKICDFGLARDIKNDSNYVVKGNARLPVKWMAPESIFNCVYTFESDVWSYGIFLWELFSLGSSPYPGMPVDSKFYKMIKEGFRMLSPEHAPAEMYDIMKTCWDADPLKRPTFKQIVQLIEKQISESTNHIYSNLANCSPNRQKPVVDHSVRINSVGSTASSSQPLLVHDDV", "assay": "Inhibition of KIT (unknown origin) at 1 uM by Ambit Kinomescan binding assay relative to control; values are per cent of control"}, "[6]": {"tested_on": "Tyrosine-protein kinase ABL1 (Homo sapiens), P00519 [F317L]", "sequence (P00519 whole entry F317L)": "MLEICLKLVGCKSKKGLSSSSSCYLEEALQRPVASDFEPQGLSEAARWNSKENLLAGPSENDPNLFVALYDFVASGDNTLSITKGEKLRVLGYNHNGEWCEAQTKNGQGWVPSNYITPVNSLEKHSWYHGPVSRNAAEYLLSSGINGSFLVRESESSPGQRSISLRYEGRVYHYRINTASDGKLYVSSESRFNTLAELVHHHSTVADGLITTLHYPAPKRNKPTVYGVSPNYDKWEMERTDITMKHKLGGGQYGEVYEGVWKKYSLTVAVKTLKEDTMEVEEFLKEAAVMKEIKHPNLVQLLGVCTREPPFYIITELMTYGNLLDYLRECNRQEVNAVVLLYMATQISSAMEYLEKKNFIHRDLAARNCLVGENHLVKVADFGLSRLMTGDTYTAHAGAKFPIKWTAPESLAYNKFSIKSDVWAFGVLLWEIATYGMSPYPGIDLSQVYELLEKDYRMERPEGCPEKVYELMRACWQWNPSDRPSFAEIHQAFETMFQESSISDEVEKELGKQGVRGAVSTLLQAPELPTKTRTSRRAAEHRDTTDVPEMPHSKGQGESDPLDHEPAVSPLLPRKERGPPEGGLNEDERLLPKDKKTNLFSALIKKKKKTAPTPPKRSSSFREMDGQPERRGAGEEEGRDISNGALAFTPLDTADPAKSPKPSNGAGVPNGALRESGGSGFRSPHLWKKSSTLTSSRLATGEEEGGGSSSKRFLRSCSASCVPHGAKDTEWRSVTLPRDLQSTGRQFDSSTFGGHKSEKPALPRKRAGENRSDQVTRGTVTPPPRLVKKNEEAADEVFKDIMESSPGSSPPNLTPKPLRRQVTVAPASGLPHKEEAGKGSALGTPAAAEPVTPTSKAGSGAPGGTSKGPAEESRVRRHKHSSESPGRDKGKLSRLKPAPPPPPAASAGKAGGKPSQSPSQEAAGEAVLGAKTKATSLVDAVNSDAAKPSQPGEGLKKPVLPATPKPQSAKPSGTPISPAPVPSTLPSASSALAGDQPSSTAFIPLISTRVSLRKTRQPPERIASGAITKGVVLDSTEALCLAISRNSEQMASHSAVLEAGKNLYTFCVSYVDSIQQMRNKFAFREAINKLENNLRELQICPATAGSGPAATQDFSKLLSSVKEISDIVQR", "assay": "Inhibition of nonphosphorylated ABL1 F317L mutant (unknown origin) at 1 uM by Ambit Kinomescan binding assay relative to control"}, "[7]": {"target": "Wee1-like protein kinase (Homo sapiens) (UniProt P30291)", "assay": "Inhibition of Wee1 Lys2 labeling site in human A-375 cells at 0.05 uM by KiNativ Profiling analysis relative to control", "assay_type": "cell-based"}, "[8]": {"target": "Dual specificity tyrosine-phosphorylation-regulated kinase 2 (Homo sapiens) (UniProt Q92630)", "assay": "Inhibition of DYRK2 (unknown origin) at 1 uM by Ambit Kinomescan binding assay relative to control; values are per cent of control"}, "[9]": {"target": "T1, Serine/threonine-protein kinase D2 (Homo sapiens) (UniProt Q9BZL6)", "T1 sequence (whole entry)": "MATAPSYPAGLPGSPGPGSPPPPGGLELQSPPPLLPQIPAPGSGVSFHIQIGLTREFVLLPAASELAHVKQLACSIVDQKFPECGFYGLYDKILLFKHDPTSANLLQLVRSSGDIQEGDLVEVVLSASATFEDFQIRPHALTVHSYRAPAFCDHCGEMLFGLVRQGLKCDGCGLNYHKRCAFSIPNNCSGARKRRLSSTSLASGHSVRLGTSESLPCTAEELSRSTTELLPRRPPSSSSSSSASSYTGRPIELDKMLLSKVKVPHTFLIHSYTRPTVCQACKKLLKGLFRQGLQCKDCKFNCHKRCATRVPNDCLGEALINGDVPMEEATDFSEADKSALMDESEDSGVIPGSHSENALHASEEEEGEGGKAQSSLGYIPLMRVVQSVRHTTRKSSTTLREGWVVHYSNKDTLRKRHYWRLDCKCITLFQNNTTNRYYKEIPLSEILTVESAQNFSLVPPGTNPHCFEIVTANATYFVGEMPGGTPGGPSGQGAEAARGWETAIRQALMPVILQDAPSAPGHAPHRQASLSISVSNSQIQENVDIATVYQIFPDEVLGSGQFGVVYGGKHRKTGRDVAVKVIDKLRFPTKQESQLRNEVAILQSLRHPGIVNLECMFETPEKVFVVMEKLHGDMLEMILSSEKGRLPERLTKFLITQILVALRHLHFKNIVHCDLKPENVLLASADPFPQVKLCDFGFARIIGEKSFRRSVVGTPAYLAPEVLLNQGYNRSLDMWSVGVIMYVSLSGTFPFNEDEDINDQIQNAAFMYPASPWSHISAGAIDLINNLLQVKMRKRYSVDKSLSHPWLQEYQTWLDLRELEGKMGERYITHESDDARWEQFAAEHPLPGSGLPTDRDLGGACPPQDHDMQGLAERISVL", "assay": "Inhibition of PKD2 Lys1 labeling site in human A-375 cells at 5 uM by KiNativ Profiling analysis relative to control", "assay_type": "cell-based"}, "[10]": {"target": "T2, NUAK family SNF1-like kinase 2 (Homo sapiens) (UniProt Q9H093)", "T2 sequence (whole entry)": "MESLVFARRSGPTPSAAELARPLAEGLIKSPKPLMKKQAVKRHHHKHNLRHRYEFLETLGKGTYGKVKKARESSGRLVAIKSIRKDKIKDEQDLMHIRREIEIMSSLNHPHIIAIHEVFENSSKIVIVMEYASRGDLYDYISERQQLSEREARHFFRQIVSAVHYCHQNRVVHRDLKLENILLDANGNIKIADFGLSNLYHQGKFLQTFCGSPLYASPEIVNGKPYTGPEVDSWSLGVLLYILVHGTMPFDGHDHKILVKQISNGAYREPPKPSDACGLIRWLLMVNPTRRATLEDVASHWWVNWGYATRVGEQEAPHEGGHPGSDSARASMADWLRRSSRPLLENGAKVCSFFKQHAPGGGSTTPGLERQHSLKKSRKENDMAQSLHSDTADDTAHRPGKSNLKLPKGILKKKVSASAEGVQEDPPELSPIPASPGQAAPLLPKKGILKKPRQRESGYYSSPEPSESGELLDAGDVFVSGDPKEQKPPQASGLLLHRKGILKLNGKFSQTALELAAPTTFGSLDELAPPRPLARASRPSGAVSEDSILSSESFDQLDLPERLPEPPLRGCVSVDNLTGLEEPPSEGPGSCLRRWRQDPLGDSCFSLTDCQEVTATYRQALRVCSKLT", "assay": "Inhibition of NuaK2 Lys1 labeling site in human A-375 cells at 5 uM by KiNativ Profiling analysis relative to control", "assay_type": "cell-based"}, "[11]": {"target": "Tyrosine-protein kinase JAK1 (Homo sapiens) (UniProt P23458)", "assay": "Inhibition of JAK1 JH2 pseudokinase domain (unknown origin) at 10 uM by Ambit Kinomescan binding assay"}, "[12]": {"assay": "Inhibition of NEK6/7 K2 labeling site harbouring DIKPANVFITATGVVK in human Huh-7 cells at 10 uM by KiNativ Profiling analysis relative to control", "details": "condition cancer"}, "[13]": {"target": "Epidermal growth factor receptor (Homo sapiens) (UniProt P00533)", "assay": "Inhibition of EGFR (unknown origin) at 10 uM by Ambit Kinomescan binding assay relative to control"}, "[14]": {"target": "TRAF2 and NCK-interacting protein kinase (Homo sapiens) (UniProt Q9UKE5)", "assay": "Inhibition of ZC2/TNIK K2 labeling site in human Huh-7 cells at 10 uM by KiNativ Profiling analysis relative to control", "assay_type": "cell-based"}, "[15]": {"target": "Casein kinase I isoform delta (Homo sapiens) (UniProt P48730)", "sequence (P48730 whole entry, looked up, canonical isoform)": "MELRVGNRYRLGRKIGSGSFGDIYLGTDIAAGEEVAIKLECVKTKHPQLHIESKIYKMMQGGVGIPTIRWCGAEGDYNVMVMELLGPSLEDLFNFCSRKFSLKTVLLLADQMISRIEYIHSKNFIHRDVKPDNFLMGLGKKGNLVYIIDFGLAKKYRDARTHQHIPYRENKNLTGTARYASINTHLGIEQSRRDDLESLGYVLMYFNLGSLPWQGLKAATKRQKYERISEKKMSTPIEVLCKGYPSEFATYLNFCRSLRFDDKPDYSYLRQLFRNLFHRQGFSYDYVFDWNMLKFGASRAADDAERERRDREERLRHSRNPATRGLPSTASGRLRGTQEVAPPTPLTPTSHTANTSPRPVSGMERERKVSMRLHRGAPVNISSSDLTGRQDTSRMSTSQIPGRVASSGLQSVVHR", "assay": "Inhibition of CK1 delta K2 labeling site in human Huh-7 cells at 1 uM by KiNativ Profiling analysis relative to control", "assay_type": "cell-based"}, "[16]": {"target": "Epidermal growth factor receptor (Homo sapiens) (UniProt P00533)", "assay": "Inhibition of EGFR Lys1 labeling site in human A-375 cells at 5 uM by KiNativ Profiling analysis relative to control", "assay_type": "cell-based"}, "[17]": {"assay": "Inhibition of MAP3K2/3 K2 labeling site in human Huh-7 cells at 1 uM by KiNativ Profiling analysis relative to control", "details": "condition cancer"}},
  "note": "The source made the active and inactive calls. No cut-off for these calls is given here.",
  "data": [
    {"smiles": "CNc1cc(Oc2cc(C(=O)Nc3cc(N4CCN(C)CC4)cc(C(F)(F)F)c3)ccc2C)ncn1", "values": [
      {"measurement": "inhibition", "setting": "[1]", "result": 0.7, "unit": "%"},
      {"measurement": "inhibition", "setting": "[2]", "result": 11.5, "unit": "%"},
      {"measurement": "inhibition", "setting": "[3]", "result": 4.5, "unit": "%"},
      {"measurement": "inhibition", "setting": "[4]", "result": 0.5, "unit": "%"}
    ]},
    {"smiles": "CCN1CCN(Cc2ccc(NC(=O)c3ccc(C)c(/C=C/c4cnc5[nH]ccc5c4OC)c3)cc2C(F)(F)F)CC1", "values": [
      {"measurement": "residual activity", "setting": "[5]", "result": 0.3, "unit": "%"},
      {"measurement": "inhibition", "setting": "[6]", "result": 0, "unit": "%"},
      {"measurement": "inhibition", "setting": "[7]", "result": 19.2, "unit": "%"},
      {"measurement": "residual activity", "setting": "[8]", "result": 68, "unit": "%"},
      {"measurement": "inhibition", "setting": "[9]", "result": 2.1, "unit": "%"},
      {"measurement": "inhibition", "setting": "[10]", "result": -6.1, "unit": "%"}
    ]},
    {"smiles": "CCN1CCN(Cc2ccc(NC(=O)c3ccc(C)c(Oc4ccnc5[nH]ccc45)c3)cc2C(F)(F)F)CC1", "values": [
      {"measurement": "inhibition", "setting": "[11]", "result": "inactive"},
      {"measurement": "inhibition at 10 µM", "setting": "[12]", "result": 2.8, "unit": "%"},
      {"measurement": "inhibition", "setting": "[13]", "result": 5.6, "unit": "%"},
      {"measurement": "inhibition", "setting": "[14]", "result": 72.6, "unit": "%"},
      {"measurement": "inhibition", "setting": "[15]", "result": 18.5, "unit": "%"},
      {"measurement": "inhibition", "setting": "[16]", "result": -1.5, "unit": "%"},
      {"measurement": "inhibition at 1 µM", "setting": "[17]", "result": 7.4, "unit": "%"}
    ]}
  ]
}
